Results reported in PMC10648349, “Aromatic Diboronic Acids as Effective KPC/AmpC Inhibitors” (Molecules, 2023).
In brackets after ≈: the same amount, converted by molar mass.

Columns and labels:
[1] = system: K. pneumoniae ATCC 700603 ESBL-positive; test: combination disc test CDT-ESBL; type: cell-based; details: Klebsiella pneumoniae, ATCC700603, read-out: Diameter of inhibition zone, CAZ-30 disc with agent; for zone of inhibition at 100 µg/disc: agent 0.1 mg per disc; for zone of inhibition at 300 µg/disc: agent 0.3 mg per disc
C. krusei ATCC 6258 = test: antifungal activity (disc-diffusion, MIC, MFC); type: cell-based, Candida krusei; details: Pichia kudriavzevii, ATCC6258; for zone of inhibition at 0.4 mg/disc: 0.4 mg per disc, 9 mm disc (fluconazole 0.025 mg, 6 mm disc), - no zone, read-out: Diameter of inhibition zone; for MIC: fluconazole by Etest
Method in brief: (§1)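 Following CLSI and EUCAST guidance, DMSO-dissolved compounds were tested by broth MIC, by minimal bactericidal (bacteria) or fungicidal (yeast) concentration, and by disc diffusion at 0.4 mg per disc. Comparators were fluconazole (yeasts), linezolid (Gram-positives) and nitrofurantoin (Gram-negative rods).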

[2] = system: E. coli 77 CMY-2-positive; test: combination disc test CDT-AmpC; type: cell-based; details: Escherichia coli, read-out: Diameter of inhibition zone, CAZ-30 disc with agent; for zone of inhibition at 100 µg/disc: agent 0.1 mg per disc; for zone of inhibition at 300 µg/disc: agent 0.3 mg per disc
B. subtilis ATCC 6633 = test: direct antimicrobial activity (disc-diffusion); type: cell-based; details: Bacillus subtilis, ATCC6633; 0.4 mg per disc, 9 mm disc (linezolid 0.03 mg, 6 mm disc); - no zone; read-out: Diameter of inhibition zone
Method in brief: as §1

[3] = MTT-based viability assay; type: cell-based; details: human, MRC-5 human fibroblasts, 72 h, read-out: Viability of MRC-5 cells (% of viable cells ± SD)
Method in brief: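 MRC-5 human fibroblasts grown in MEME with 10% FBS at 37 °C, 5% CO2, tested by MTT with absorbance read at 570 nm. Viability given as percent of untreated control cells, in triplicate.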

E. faecium ATCC 6057 = test: direct antimicrobial activity (disc-diffusion, MIC, MBC); type: cell-based; details: Enterococcus faecium, ATCC6057
Method in brief: as §1

E. faecalis ATCC 29212 = test: as above; type: cell-based; details: Enterococcus faecalis, ATCC29212
Method in brief: as §1

[4] = system: S. aureus ATCC 43300 MRSA; test: as above; type: cell-based; details: Staphylococcus aureus; for zone of inhibition at 0.4 mg/disc: 0.4 mg per disc, 9 mm disc (linezolid 0.03 mg, 6 mm disc), - no zone, read-out: Diameter of inhibition zone
Method in brief: as §1

[5] = system: S. epidermidis ATCC 12228; test: as above; type: cell-based; details: Staphylococcus epidermidis, ATCC12228; for zone of inhibition at 0.4 mg/disc: 0.4 mg per disc, 9 mm disc (linezolid 0.03 mg, 6 mm disc), - no zone, read-out: Diameter of inhibition zone
Method in brief: as §1

S. aureus ATCC 6538P = test: as above; type: cell-based; details: Staphylococcus aureus, ATCC6538P; for zone of inhibition at 0.4 mg/disc: 0.4 mg per disc, 9 mm disc (linezolid 0.03 mg, 6 mm disc), - no zone, read-out: Diameter of inhibition zone
Method in brief: as §1

[6] = system: P. aeruginosa MUW 700 cAmpC-positive; test: checkerboard microdilution, antibiotic plus tested agent; type: cell-based, Pseudomonas aeruginosa
Method in brief: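 β-lactam 1–64 mg/L × agent/PBA 4–16 mg/L checkerboard; meropenem vs carbapenemase producers, ceftazidime vs AmpC producer; imipenem, ertapenem added for selected agents. Readout: combination MICs, FICI (average and lowest); off-scale MICs taken as next doubling.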

[7] = system: C. parapsilosis ATCC 22019; test: antifungal activity (disc-diffusion, MIC, MFC); type: cell-based, Candida parapsilosis; details: Lodderomyces parapsilosis, ATCC22019; for zone of inhibition at 0.4 mg/disc: 0.4 mg per disc, 9 mm disc (fluconazole 0.025 mg, 6 mm disc), - no zone, read-out: Diameter of inhibition zone; for MIC: fluconazole by Etest
Method in brief: as §1

C. albicans ATCC 90028 = test: antifungal activity (disc-diffusion, MIC, MFC); type: cell-based; details: Candida albicans, ATCC90028; for MIC: fluconazole by Etest
Method in brief: as §1

C. tropicalis ATCC 750 = test: antifungal activity (disc-diffusion, MIC, MFC); type: cell-based; details: Candida tropicalis, ATCC750; for MIC: fluconazole by Etest
Method in brief: as §1

C. tropicalis IBA 171 = test: antifungal activity (disc-diffusion, MIC, MFC); type: cell-based; details: Candida tropicalis, IBA171; for MIC: fluconazole by Etest
Method in brief: as §1

S. cerevisiae ATCC 9763 = test: antifungal activity (disc-diffusion, MIC, MFC); type: cell-based; details: Saccharomyces cerevisiae, ATCC9763; for zone of inhibition at 0.4 mg/disc: 0.4 mg per disc, 9 mm disc (fluconazole 0.025 mg, 6 mm disc), - no zone, read-out: Diameter of inhibition zone; for MIC: fluconazole by Etest
Method in brief: as §1

[8] = system: K. pneumoniae ATCC BAA 1705 KPC-2-positive; test: combination disc test CDT-KPC; type: cell-based; details: Klebsiella pneumoniae, BAA1705, read-out: Diameter of inhibition zone, MEM-10 disc with agent; for zone of inhibition at 100 µg/disc: agent 0.1 mg per disc; for zone of inhibition at 300 µg/disc: agent 0.3 mg per disc
[9] = system: P. aeruginosa MUW 700 AmpC(+); test: MIC of tested agent alone, microdilution; type: cell-based; details: Pseudomonas aeruginosa; read-out: MIC of agent alone
Method in brief: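 Checkerboard synergy testing crossed two-fold dilutions of the tested agents or PBA (4–16 mg/L) with β-lactam dilutions (1–64 mg/L), and antibiotic MICs were read at each agent level. FICI was derived from the interface wells. Separately, each agent's own MIC came from standard microdilution.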

[10] = 0.4 mg per disc, 9 mm disc (fluconazole 0.025 mg, 6 mm disc), - no zone, read-out: Diameter of inhibition zone

Row | Compound | MIC (C. krusei ATCC 6258) [µg/mL] | zone of inhibition at 0.4 mg/disc (B. subtilis ATCC 6633) [mm] | viability at 72 h, 12.5 mg/L [3] [%] | viability at 72 h, 25 mg/L [3] [%] | MIC (E. faecium ATCC 6057) [µg/mL] | MIC (E. faecalis ATCC 29212) [µg/mL] | MIC [4] [µg/mL] | MIC [5] [µg/mL] | zone of inhibition at 0.4 mg/disc [5] [mm] | MIC (S. aureus ATCC 6538P) [µg/mL] | Average FICI with ceftazidime [6] | Interpretation of the average FICI with ceftazidime [6] | Interpretation of the lowest FICI with ceftazidime [6] | The lowest FICI with ceftazidime [6] | MIC [7] [µg/mL] | MIC (C. albicans ATCC 90028) [µg/mL] | MIC (C. tropicalis ATCC 750) [µg/mL] | MIC (C. tropicalis IBA 171) [µg/mL] | MIC (S. cerevisiae ATCC 9763) [µg/mL] | MIC [9] [µg/mL] | further results
1 | OB(O)c1ccc(B(O)O)c(F)c1 [1b] | 100 (≈ 544 µM) | 23 | 140 ± 6.7 | 140 ± 8.3 | 200 (≈ 1090 µM) | 200 (≈ 1090 µM) | 100 (≈ 544 µM) | 100 (≈ 544 µM) | 17 | 25 (≈ 136 µM) | 0.18 | S (FICI ≤ 0.5, synergy) | S (FICI ≤ 0.5, synergy) | 0.14 | 100 (≈ 544 µM) | > 400 | > 400 | 400 (≈ 2180 µM) | 25 (≈ 136 µM) | > 400 | zone of inhibition at 100 µg/disc [1]: 15 mm; zone of inhibition at 0.4 mg/disc (C. krusei ATCC 6258): 22 mm; zone of inhibition at 100 µg/disc [2]: 20 mm; viability at 72 h, 50 mg/L [3]: 117 ± 1.3%; zone of inhibition at 0.4 mg/disc [4]: 13 mm; zone of inhibition at 0.4 mg/disc (S. aureus ATCC 6538P): 14 mm; zone of inhibition at 0.4 mg/disc [7]: 12 mm; zone of inhibition at 0.4 mg/disc (S. cerevisiae ATCC 9763): 14 mm; zone of inhibition at 100 µg/disc [8]: 11 mm
2 | OB(O)c1cccc(B(O)O)c1 [2a] | > 400 | 18 | 94.4 ± 2.2 | 75.2 ± 10.3 | > 400 | 200 (≈ 1210 µM) | 400 (≈ 2410 µM) | 200 (≈ 1210 µM) | 21 | 100 (≈ 603 µM) | 0.18 | S (FICI ≤ 0.5, synergy) | S (FICI ≤ 0.5, synergy) | 0.14 | > 400 | 400 (≈ 2410 µM) | > 400 | 400 (≈ 2410 µM) | > 400 | > 400 | zone of inhibition at 300 µg/disc [1]: 16 mm; zone of inhibition at 300 µg/disc [2]: 22 mm; viability at 72 h, 50 mg/L [3]: 73.1 ± 13.6%; zone of inhibition at 0.4 mg/disc (S. aureus ATCC 6538P): 20 mm; zone of inhibition at 300 µg/disc [8]: 15 mm
3 | OB(O)c1cc(F)c(B(O)O)c(F)c1F [1f] | 100 (≈ 455 µM) | 13 | 97.4 ± 2.2 | 89.9 ± 1.9 | 200 (≈ 910 µM) | 400 (≈ 1820 µM) | 200 (≈ 910 µM) | 50 (≈ 228 µM) | 17 | 50 (≈ 228 µM) | 0.43 | S (FICI ≤ 0.5, synergy) | S (FICI ≤ 0.5, synergy) | 0.27 | 100 (≈ 455 µM) | 50 (≈ 228 µM) | 100 (≈ 455 µM) | 50 (≈ 228 µM) | 50 (≈ 228 µM) | > 400 | zone of inhibition at 100 µg/disc [1]: 15 mm; zone of inhibition at 0.4 mg/disc (C. krusei ATCC 6258): 19 mm; zone of inhibition at 100 µg/disc [2]: 21 mm; viability at 72 h, 50 mg/L [3]: 78.1 ± 0.9%; zone of inhibition at 0.4 mg/disc [4]: 16 mm; zone of inhibition at 0.4 mg/disc (S. aureus ATCC 6538P): 17 mm; zone of inhibition at 0.4 mg/disc [7]: 20 mm; zone of inhibition at 0.4 mg/disc (C. albicans ATCC 90028; [10]): 24 mm; zone of inhibition at 0.4 mg/disc (C. tropicalis ATCC 750; [10]): 18 mm; zone of inhibition at 0.4 mg/disc (C. tropicalis IBA 171; [10]): 20 mm; zone of inhibition at 0.4 mg/disc (S. cerevisiae ATCC 9763): 20 mm; zone of inhibition at 100 µg/disc [8]: 6 mm
4 | OB(O)c1ccccc1B(O)O [3a, phenylene-1,2-diboronic acid] | 400 (≈ 2410 µM) | 24 | – | – | 50 (≈ 302 µM) | 400 (≈ 2410 µM) | 400 (≈ 2410 µM) | 200 (≈ 1210 µM) | 20 | 200 (≈ 1210 µM) | 0.61 | I (0.5 < FICI ≤ 4, indifference) | S (FICI ≤ 0.5, synergy) | 0.29 | 25 (≈ 151 µM) | > 400 | > 400 | > 400 | 25 (≈ 151 µM) | 400 | zone of inhibition at 300 µg/disc [1]: 18 mm; zone of inhibition at 300 µg/disc [2]: 23 mm; viability at 72 h, 16 mg/L ([3]; 16 mg/L): 110 ± 9.3%; viability at 72 h, 32 mg/L ([3]; 32 mg/L): 106 ± 10.6%; viability at 72 h, 64 mg/L ([3]; 64 mg/L): 76.2 ± 4.2%; zone of inhibition at 0.4 mg/disc (E. faecium ATCC 6057; 0.4 mg per disc, 9 mm disc (linezolid 0.03 mg, 6 mm disc), - no zone, read-out: Diameter of inhibition zone): 16 mm; zone of inhibition at 300 µg/disc [8]: 17 mm
